Measured values published in US9969752B2, “Inhibitors of HIF prolyl hydroxylase” (MERCK SHARP & DOHME CORP., priority 2014, dated 2018).

Target: T1, Human HIF-PHD2 (Homo sapiens, UniProt Q9GZT9)
T1 construct: FLAG-tagged full length PHD2 expressed in and purified from baculovirus-infected Sf9 cells; FLAG; made in house; host or cells: baculovirus-infected Sf9 cells
Experiment: Inhibition of the hydroxylation of a HIF peptide by PHD2 (time resolved fluorescence, 384-well)
Format: biochemical
Settings: FLAG-tagged full length PHD2; 0.2 μM 2-oxoglutarate, 0.5 μM HIF-1α peptide; 45 minutes at room temperature; read-out: Human HIF-PHD2 IC50

T1 sequence (Q9GZT9 whole entry): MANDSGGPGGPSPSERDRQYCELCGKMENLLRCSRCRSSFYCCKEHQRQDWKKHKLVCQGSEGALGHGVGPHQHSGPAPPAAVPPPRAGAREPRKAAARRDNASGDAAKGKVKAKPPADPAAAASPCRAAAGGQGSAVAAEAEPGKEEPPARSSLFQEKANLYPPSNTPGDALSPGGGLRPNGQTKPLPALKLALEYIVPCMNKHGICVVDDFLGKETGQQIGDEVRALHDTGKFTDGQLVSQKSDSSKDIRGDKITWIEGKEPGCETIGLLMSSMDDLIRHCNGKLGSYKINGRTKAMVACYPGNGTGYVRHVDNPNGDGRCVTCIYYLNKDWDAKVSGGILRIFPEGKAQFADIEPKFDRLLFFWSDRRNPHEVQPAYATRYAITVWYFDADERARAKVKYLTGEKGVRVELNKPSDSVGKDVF

Row | Structure (SMILES) | IC50
1 | CN1c2cccc3c(O)c(C(=O)NCC(=O)O)c(=O)n(c23)CC1c1cncs1 (centres unmarked) [Example 112, 2-(7-Hydroxy-1-methyl-5-oxo-2-(thiazol-5-yl)-1,2,3,5-tetrahydropyrido[1,2,3-de]quinoxaline-6-carboxamido)acetic acid] | 29 nM
2 | N#Cc1ccc2c(O)c(C(=O)NCC(=O)O)c(=O)n3c2c1NC(c1ccc(C(F)(F)F)cc1)C3 (centres unmarked) [Example 114, 2-(10-Cyano-7-hydroxy-5-oxo-2-(4-(trifluoromethyl)phenyl)-1,2,3,5-tetrahydropyrido[1,2,3-de]quinoxaline-6-carboxamido)acetic acid] | 1 nM
3 | O=C(O)CNC(=O)c1c(O)c2ccc(F)c3c2n(c1=O)C(c1ccc(C(F)(F)F)cc1)CN3 (centres unmarked) [Example 115, 2-(10-Fluoro-7-hydroxy-5-oxo-3-(4-(trifluoromethyl)phenyl)-1,2,3,5-tetrahydropyrido[1,2,3-de]quinoxaline-6-carboxamido)acetic acid] | 13 nM
4 | CN1CC(c2ccc(C(F)(F)F)cc2)n2c(=O)c(C(=O)NCC(=O)O)c(O)c3ccc(F)c1c32 (centres unmarked) [Example 117, 2-(10-Fluoro-7-hydroxy-1-methyl-5-oxo-3-(4-(trifluoromethyl)phenyl)-1,2,3,5-tetrahydropyrido[1,2,3-de]quinoxaline-6-carboxamido)acetic acid] | 55 nM
5 | O=C(O)CNC(=O)c1c(O)c2cc(F)cc3c2n(c1=O)C(c1ccc(C(F)(F)F)cc1)CN3 (centres unmarked) [Example 118, 2-(9-Fluoro-7-hydroxy-5-oxo-3-(4-(trifluoromethyl)phenyl)-1,2,3,5-tetrahydropyrido[1,2,3-de]quinoxaline-6-carboxamido)acetic acid] | 5.7 nM
6 | O=C(O)CNC(=O)c1c(O)c2c(F)ccc3c2n(c1=O)CC(c1ccc(C(F)(F)F)cc1)N3 (centres unmarked) [Example 119, 2-(8-Fluoro-7-hydroxy-5-oxo-2-(4-(trifluoromethyl)phenyl)-1,2,3,5-tetrahydropyrido[1,2,3-de]quinoxaline-6-carboxamido)acetic acid] | 10 nM
7 | O=C(O)CNC(=O)c1c(O)c2c(F)ccc3c2n(c1=O)C(c1ccc(C(F)(F)F)cc1)CN3 (centres unmarked) [Example 121, 2-(8-Fluoro-7-hydroxy-5-oxo-3-(4-(trifluoromethyl)phenyl)-1,2,3,5-tetrahydropyrido[1,2,3-de]quinoxaline-6-carboxamido)acetic acid] | 9.4 nM
8 | CN1CC(c2ccc(C(F)(F)F)cc2)n2c(=O)c(C(=O)NCC(=O)O)c(O)c3cc(F)cc1c32 (centres unmarked) [Example 122, 2-(9-Fluoro-7-hydroxy-1-methyl-5-oxo-3-(4-(trifluoromethyl)phenyl)-1,2,3,5-tetrahydropyrido[1,2,3-de]quinoxaline-6-carboxamido)acetic acid] | 30 nM
9 | CN1CC(c2ccc(C(F)(F)F)nc2)n2c(=O)c(C(=O)NCC(=O)O)c(O)c3cccc1c32 (centres unmarked) [Example 128, 2-(7-Hydroxy-1-methyl-5-oxo-3-(6-(trifluoromethyl)pyridin-3-yl)-1,2,3,5-tetrahydropyrido[1,2,3-de]quinoxaline-6-carboxamido)acetic acid] | 6.9 nM
10 | NC(=O)c1ccc(-c2ccc(C3COc4cccc5c(O)c(C(=O)NCC(=O)O)c(=O)n3c45)cc2)cc1 (centres unmarked) [Example 141, N-{[3-(4′-Carbamoylbiphenyl-4-yl)-7-hydroxy-5-oxo-2,3-dihydro-5H-[1,4]oxazino[2,3,4-ij]quinolin-6-yl]carbonyl}glycine] | 6.1 nM

Further lines, results first:

Row | IC50 | Structure (SMILES)
11 | 15 nM | O=C(O)CNC(=O)c1c(O)c2cccc3c2n(c1=O)C(c1cncs1)CN3 (centres unmarked) [Example 111, 2-(7-Hydroxy-5-oxo-3-(thiazol-5-yl)-1,2,3,5-tetrahydropyrido[1,2,3-de]quinoxaline-6-carboxamido)acetic acid]
12 | 125 nM | CN1CC(c2cncs2)n2c(=O)c(C(=O)NCC(=O)O)c(O)c3cccc1c32 (centres unmarked) [Example 113, 2-(7-Hydroxy-1-methyl-5-oxo-3-(thiazol-5-yl)-1,2,3,5-tetrahydropyrido[1,2,3-de]quinoxaline-6-carboxamido)acetic acid]
13 | 8.8 nM | O=C(O)CNC(=O)c1c(O)c2ccc(F)c3c2n(c1=O)CC(c1ccc(C(F)(F)F)cc1)N3 (centres unmarked) [Example 116, 2-(10-Fluoro-7-hydroxy-5-oxo-2-(4-(trifluoromethyl)phenyl)-1,2,3,5-tetrahydropyrido[1,2,3-de]quinoxaline-6-carboxamido)acetic acid]
14 | 4.6 nM | O=C(O)CNC(=O)c1c(O)c2cc(F)cc3c2n(c1=O)CC(c1ccc(C(F)(F)F)cc1)N3 (centres unmarked) [Example 120, 2-(9-Fluoro-7-hydroxy-5-oxo-2-(4-(trifluoromethyl)phenyl)-1,2,3,5-tetrahydropyrido[1,2,3-de]quinoxaline-6-carboxamido)acetic acid]
15 | 15 nM | CN1c2cc(F)cc3c(O)c(C(=O)NCC(=O)O)c(=O)n(c23)CC1c1ccc(C(F)(F)F)cc1 (centres unmarked) [Example 123, 2-(9-Fluoro-7-hydroxy-1-methyl-5-oxo-2-(4-(trifluoromethyl)phenyl)-1,2,3,5-tetrahydropyrido[1,2,3-de]quinoxaline-6-carboxamido)acetic acid]
16 | 9.6 nM | O=C(O)CNC(=O)c1c(O)c2cc(OC(F)(F)F)cc3c2n(c1=O)CC(c1ccc(C(F)(F)F)cc1)O3 (centres unmarked) [Example 124, 2-(7-Hydroxy-5-oxo-9-(trifluoromethoxy)-2-(4-(trifluoromethyl)phenyl)-3,5-dihydro-2H-[1,4]oxazino[2,3,4-ij]quinoline-6-carboxamido)acetic acid]
17 | 3.6 nM | O=C(O)CNC(=O)c1c(O)c2cccc3c2n(c1=O)C(c1ccc(C(F)(F)F)nc1)CN3 (centres unmarked) [Example 127, 2-(7-Hydroxy-5-oxo-3-(6-(trifluoromethyl)pyridin-3-yl)-1,2,3,5-tetrahydropyrido[1,2,3-de]quinoxaline-6-carboxamido)acetic acid]
18 | 38 nM | CS(=O)(=O)Nc1ccc(-c2ccc3c(O)c(C(=O)NCC(=O)O)c(=O)n4c3c2OCC4c2ccc(C(F)(F)F)cc2)cc1 (centres unmarked) [Example 134, N-[(7-Hydroxy-10-{4-[(methylsulfonyl)amino]phenyl}-5-oxo-3-[4-(trifluoromethyl)phenyl]-2,3-dihydro-5H-[1,4]oxazino[2,3,4-ij]quinolin-6-yl)carbonyl]glycine]

Same assay, conditions: FLAG-tagged full length PHD2; 0.2 μM 2-oxoglutarate, 0.5 μM HIF-1α peptide; 45 minutes at room temperature; read-out: MS m/z (M + 1)+ and human HIF-PHD2 IC50

Row | Structure (SMILES) | IC50
19 | NC(=O)c1cccc(-c2ccc3c(O)c(C(=O)NCC(=O)O)c(=O)n4c3c2OCC4c2ccc(C(F)(F)F)cc2)c1 (centres unmarked) [Example 139, N-({10-(3-carbamoylphenyl)-7-hydroxy-5-oxo-3-[4-(trifluoromethyl)phenyl]-2,3-dihydro-5H-[1,4]oxazino[2,3,4-ij]quinolin-6-yl}carbonyl)glycine] | 14 nM
20 | O=C(O)CNC(=O)c1c(O)c2ccc(-c3ccn[nH]3)c3c2n(c1=O)C(c1ccc(C(F)(F)F)cc1)CO3 (centres unmarked) [Example 140, 2-(7-hydroxy-5-oxo-10-(1H-pyrazol-5-yl)-3-(4-(trifluoromethyl)phenyl)-3,5-dihydro-2H-[1,4]oxazino[2,3,4-ij]quinoline-6-carboxamido)acetic acid] | 11 nM
21 | O=C(O)CNC(=O)c1c(O)c2cccc3c2n(c1=O)C(c1ccc(-c2cccc(Cl)c2)cc1)CO3 (centres unmarked) [Example 142, N-{[3-(3′-chlorobiphenyl-4-yl)-7-hydroxy-5-oxo-2,3-dihydro-5H-[1,4]oxazino[2,3,4-ij]quinolin-6-yl]carbonyl}glycine] | 19 nM
22 | O=C(O)CNC(=O)c1c(O)c2cccc3c2n(c1=O)C(c1ccc(-c2ccc(C(F)(F)F)nc2)cc1)CO3 (centres unmarked) [Example 143, N-[(7-hydroxy-5-oxo-3-{4-[6-(trifluoromethyl)pyridin-3-yl]phenyl}-2,3-dihydro-5H-[1,4]oxazino[2,3,4-ij]quinolin-6-yl)carbonyl]glycine] | 4.7 nM
23 | COc1ccc(-c2ccc(C3COc4cccc5c(O)c(C(=O)NCC(=O)O)c(=O)n3c45)cc2)cc1 (centres unmarked) [Example 145, N-{[7-hydroxy-3-(4′-methoxybiphenyl-4-yl)-5-oxo-2,3-dihydro-5H-[1,4]oxazino[2,3,4-ij]quinolin-6-yl]carbonyl}glycine] | 6.7 nM
24 | N#Cc1ccc(-c2ccc(C3COc4cccc5c(O)c(C(=O)NCC(=O)O)c(=O)n3c45)cc2)cc1 (centres unmarked) [Example 146, N-{[3-(4′-cyanobiphenyl-4-yl)-7-hydroxy-5-oxo-2,3-dihydro-5H-[1,4]oxazino[2,3,4-ij]quinolin-6-yl]carbonyl}glycine] | 6.1 nM

Results, then the compound that gave them:

Row | IC50 | Structure (SMILES)
25 | 15 nM | COc1cncc(-c2ccc3c(O)c(C(=O)NCC(=O)O)c(=O)n4c3c2OCC4c2ccc(C(F)(F)F)cc2)c1 (centres unmarked) [Example 135, N-({7-hydroxy-10-(5-methoxypyridin-3-yl)-5-oxo-3-[4-(trifluoromethyl)phenyl]-2,3-dihydro-5H-[1,4]oxazino[2,3,4-ij]quinolin-6-yl}carbonyl)glycine]
26 | 19 nM | O=C(O)CNC(=O)c1c(O)c2ccc(-c3ccccn3)c3c2n(c1=O)C(c1ccc(C(F)(F)F)cc1)CO3 (centres unmarked) [Example 136, N-({7-hydroxy-5-oxo-10-pyridin-2-yl-3-[4-(trifluoromethyl)phenyl]-2,3-dihydro-5H-[1,4]oxazino[2,3,4-ij]quinolin-6-yl}carbonyl)glycine]
27 | 14 nM | COc1ncc(-c2ccc3c(O)c(C(=O)NCC(=O)O)c(=O)n4c3c2OCC4c2ccc(C(F)(F)F)cc2)cn1 (centres unmarked) [Example 137, N-({7-hydroxy-10-(2-methoxypyrimidin-5-yl)-5-oxo-3-[4-(trifluoromethyl)phenyl]-2,3-dihydro-5H-[1,4]oxazino[2,3,4-ij]quinolin-6-yl}carbonyl)glycine]
28 | 12 nM | O=C(O)CNC(=O)c1c(O)c2ccc(-c3cncnc3)c3c2n(c1=O)C(c1ccc(C(F)(F)F)cc1)CO3 (centres unmarked) [Example 138, N-({7-hydroxy-5-oxo-10-pyrimidin-5-yl-3-[4-(trifluoromethyl)phenyl]-2,3-dihydro-5H-[1,4]oxazino[2,3,4-ij]quinolin-6-yl}carbonyl)glycine]
29 | 10 nM | Cc1ccc(-c2ccc(C3COc4cccc5c(O)c(C(=O)NCC(=O)O)c(=O)n3c45)cc2)cc1 (centres unmarked) [Example 144, N-{[7-hydroxy-3-(4′-methylbiphenyl-4-yl)-5-oxo-2,3-dihydro-5H-[1,4]oxazino[2,3,4-ij]quinolin-6-yl]carbonyl}glycine]
